Assay results published in patent publication US20050244335A1, “Methods and compositions related to increasing antitumor activity of chemotherapeutic agents” (priority 2004, published 2005).
Where two headings read alike, the source gives them in different places.

Columns and labels:
[1] = tested on: human breast cancer MCF-7 xenografts; experiment: In vivo chemotherapy, breast cancer MCF-7 xenograft model in nude mice; conditions: MCF-7 model
Source text: (§1) Cell Culture. […] All media contained 1% penicillin-streptomycin.
(§2) Data and Statistical Analysis.

[2] = tested on: human lung cancer H1299 xenografts; experiment: In vivo chemotherapy, lung cancer H1299 xenograft model in nude mice
Source text: as §1, §2

human cancer xenografts [3] = experiment: Six murine-human cancer xenograft models overall: efficacy and toxicity
Description: (§4) Human cancer xenograft models were established using the methods reported previously (26-29). When confluence reached 80%, cultured LS174T, MCF-7, MDA-MB-468, U87-MG, A549 and H1299 cells were harvested from the monolayer cultures, washed with the above indicated serum-free medium and resuspended in the same medium with Matrigel® basement membrane matrix at a 3:1 ratio, and then injected subcutaneously (s.c.) (5×10^6 cells, total volume 0.2 mL) into the left inguinal area of the nude mice. The animals were monitored for activity, physical condition, determination of body weight, and measurement of tumor growth. Tumor growth was determined by caliper measurement in two perpendicular diameters of the implant every other day. Tumor weight (in g) was calculated by the formula, 1/2a×b^2 where “a” is the long diameter and “b” is the short diameter (in cm).
(§5) Nude mice bearing human cancer xenografts were randomly divided into various treatment and control groups (5 mice/group). In treatment groups, animals were pre-treated with DEX subcutaneously (s.c., 0.1 mg/day for 5 days, Day −4-0) or saline (as controls). Carboplatin was administered intraperitoneally (i.p.) at a single dose of 120 mg/kg (360 mg/m^2) on day 0.
(§6) The antitumor activity (tumor mass) and peripheral blood counts were expressed as mean and standard deviations and the significance of differences were analyzed by ANOVA.
(§7) When mean tumor mass reached 44-68 mg, animals were treated with s.c. DEX at a dose of 0.1 mg/day for 5 days, followed by chemotherapy.

[4] = tested on: human colon cancer LS174T xenografts; experiment: In vivo chemotherapy, colon cancer LS174T xenograft model in nude mice; conditions: DEX s.c. 0.1 mg/day 5 days, carboplatin 120 mg/kg i.p. day 0
Source text: as §1, §2

NSCLC patients = experiment: Clinical trial of Dex pretreatment with carboplatin and gemcitabine in stage 4 NSCLC patients; format: in vivo, human; conditions: for AGC nadir ratio (course 2 ÷ course 1), M±SE: 4 days prior to and day of chemotherapy
Description: Patients were randomized at a 1:2:2 ratio to receive no Dex (Cohort 1), or Dex 8 mg bid (Cohort 2) or 16 mg bid (Cohort 3), 4 days prior to and the day of each chemotherapy treatment. Dex was given only in courses 2, 3, and 4 so that toxicities between course 1 vs. course 2 comparisons could be made.

CD-1 mice [5] = tested on: CD-1 mice
Description: sing a protocol similar to the above survival study, the effects of DEX on chemotherapy-induced bone marrow toxicity were studied in male CD-1 mice. DEX (s.c., 0.1 mg/mouse/day for 5 days) was given prior to (day −4-0) or after (day 0 to 4) a single i.p. dose of carboplatin (600 mg/m^2 or 200 mg/kg). On days −4, 0, 3, 7, 14, peripheral blood samples (60 μL) were obtained from postorbital venous plexus using a microcapillary tube coated with 5% ethylenediaminetetraacetic acid and cell counts were obtained using a Coulter counter. Wright's stained peripheral blood smears were examined by light microscopy and the percentage of lymphocytes, granulocytes and monocytes were recorded.
(§3) The significance of the differences among treated groups and controls were analyzed by ANOVA.
To examine possible mechanisms responsible for reduced mortality in mice pre-treated with DEX, peripheral blood counts before and after chemotherapy were determined. […] The same experimental design was used to examine the dose-schedule effects of dexamethasone prevention of neutropenia.

human cancer xenografts [6] = conditions: in vivo
Description: as §4, §5, §6, §7

CD-1 mice [7] = format: in vivo; conditions: for survival rate: carboplatin 600 mg/m^2 (200 mg/kg) i.p., 14-day
Description: Male CD-1 mice, randomly divided into multiple treatment and control groups (10 mice/group), were given DEX by subcutaneous (s.c.) injection at doses of 0.01, 0.05, 0.1, 0.3 mg/mouse/day or saline (as controls) for 5 days prior to (day −4 to 0) or after (day 0 to 4) a single intraperitoneal (i.p.) injection of carboplatin (600 mg/m^2 or 200 mg/kg) on day 0. Animals were monitored daily for activity, physical condition, body weight and 14-day survival rates.
as §3

[8] = tested on: human glioma U87-MG xenografts; conditions: U87MG model
Description: Cell Culture. The cell lines of human cancers (colon LS174T, breast MCF-7 and MDA-MB-468, and lung A549) and glioma (U87-MG) were obtained from American Type Culture Collection (Rockville, Md.) and cultured according to their instruction. LS174T cells were cultured in modified Earle's medium with 0.1 mM nonessential amino acids and Earle's balanced salt solution containing 10% FBS. MCF-7 cells were grown in modified Earle's medium containing 10% FBS, 1 mM non-essential amino acids and Earle's balanced salt solution, 1 mM sodium pyruvate and 10 mg/L bovine insulin. MDA-MB-468 cells were grown in Dulbecco's modified Eagle's/F-12 Ham's medium (1:1 mixture) containing 10% FBS. […]
Animal Tumor Models. […] The animals were monitored for activity, physical condition, determination of body weight, and measurement of tumor growth. Tumor growth was determined by caliper measurement in two perpendicular diameters of the implant every other day. Tumor weight (in g) was calculated by the formula, 1/2a×b^2 where “a” is the long diameter and “b” is the short diameter (in cm). […]
Data and Statistical Analysis. The antitumor activity (tumor mass) and peripheral blood counts were expressed as mean and standard deviations and the significance of differences were analyzed by ANOVA. […]

[9] = tested on: human lung cancer A549 xenografts; conditions: A549 model
Source text: as §1, §2

[10] = Pharmacokinetics and tissue distribution of gemcitabine in CD-1 mice; format: in vivo; conditions: gemcitabine 160 mg/kg iv
Description: At various times (5, 15, and 30 min, 1, 2, 4, 8, and 24 hr after drug dosing), plasma, bone marrow, and tissues including liver, kidneys, heart, lungs, spleen, brain and tumor were collected and treated as described above.
In brief, plasma samples (50 μL) were mixed with […] of scintillation solvent (Beckman) to determine total radioactivity. Tissue homogenates (50-200 μL) were mixed with 200 μL solubilizer (TS-2) overnight, neutralized with 400 μL of 0.3% acetic acid, and then mixed with scintillation solvent (5 mL) to quantitate the total radioactivity.
as §3

[11] = Pharmacokinetics of gemcitabine in nude mice bearing H1299 xenografts; format: in vivo; conditions: for AUC / CL / Cmax / Vss: nude mice bearing H1299 xenografts, gemcitabine 160 mg/kg iv
Description: Female nude mice bearing human lung cancer H1299 xenograft were used (3 mice for each time point). […] Bone marrow cells were harvested by using the same method described above. […] In brief, plasma samples (50 μL) were mixed with 5 mL of scintillation solvent (Beckman) to determine total radioactivity. […] Data and Statistical Analysis.

SMILES: C[C@@H]1C[C@H]2[C@@H]3CCC4=CC(=O)C=C[C@]4(C)[C@@]3(F)[C@@H](O)C[C@]2(C)[C@@]1(O)C(=O)CO [DEX, dexamethasone]
- increase of efficacy of carboplatin by DEX pretreatment [1]: 66%
- increase of efficacy of gemcitabine by DEX pretreatment [1]: 60%
- increase of anticancer effects of carboplatin by DEX pretreatment [2]: 70%
- increase of efficacy of carboplatin, gemcitabine or combination by DEX pretreatment (human cancer xenografts [3]; all xenograft models tested): 2-4 fold
- increase of therapeutic effect of carboplatin by DEX pretreatment [4]: approximately 80%
- Responses: number of PD (NSCLC patients; Cohort 2 (n=8), Dex 8 mg bid): 1
- Responses: number of PR (NSCLC patients; Cohort 2 (n=8), Dex 8 mg bid): 7
- platelet nadir ratio (course 2 ÷ course 1), M±SE (NSCLC patients; Cohort 2: Dex 8 mg bid): 2.68±0.6
- AGC nadir ratio (course 2 ÷ course 1), M±SE (NSCLC patients; Cohort 2: Dex 8 mg bid): 2.68±0.8
- Responses: number of PD (NSCLC patients; Cohort 3 (n=10), Dex 16 mg bid): 1
- Responses: number of PR (NSCLC patients; Cohort 3 (n=10), Dex 16 mg bid): 8
- Responses: number of SD (NSCLC patients; Cohort 3 (n=10), Dex 16 mg bid): 1
- platelet nadir ratio (course 2 ÷ course 1), M±SE (NSCLC patients; Cohort 3: Dex 16 mg bid): 2.72±0.6
- AGC nadir ratio (course 2 ÷ course 1), M±SE (NSCLC patients; Cohort 3: Dex 16 mg bid): 2.94±0.7
- reduction of toxicity, data trends (NSCLC patients; Dex 16 mg): effective in reducing toxicity
- Dex DLTs (NSCLC patients; NSCLC patients, Dex 8 or 16 mg bid): No Dex DLTs were observed
- optimal dose for prevention of neutropenia (CD-1 mice [5]; CD-1 mice, DEX before carboplatin 360 mg/m^2): 0.1 mg/kg
- peripheral blood counts, effect of dexamethasone (CD-1 mice [5]; mouse, in vivo): induction of transient granulocytosis and lymphopenia
- effect of DEX pretreatment on toxicity profiles of the two chemotherapeutic agents (human cancer xenografts [6]): no effect on toxicity profiles
- death (CD-1 mice [7]; CD-1 mice, DEX alone s.c. 0.01-0.3 mg/mouse/day for 5 days): No death occurred
- survival rate (CD-1 mice [7]; CD-1 mice, DEX pretreatment 0.01 mg/mouse/day for 5 days): 40%
- survival rate (CD-1 mice [7]; CD-1 mice, DEX pretreatment s.c. 0.1 mg/mouse/day for 5 days): 80%
- mortality of treated animals (CD-1 mice [7]; combination treatment with carboplatin and gemcitabine, DEX pretreatment): reduced the mortality of treated animals
- increase of therapeutic effectiveness of combination therapy of carboplatin and gemcitabine by DEX pretreatment [8]: 130%
- increase of therapeutic effectiveness of carboplatin by DEX pretreatment [9]: 50%
- increase of therapeutic effectiveness of gemcitabine by DEX pretreatment [9]: 60%

SMILES: Nc1ccn([C@@H]2O[C@H](CO)[C@@H](O)C2(F)F)c(=O)n1 [gemcitabine]
- death (human cancer xenografts [3]; nude mice, carboplatin 120 mg/kg, gemcitabine 160 mg/kg i.p.): no death occurred
- AUC ([10]; bone marrow, DEX (+)): 7.03 µg·h/mL
- CL ([10]; bone marrow, DEX (+)): 22.76 mL/g/h
- Cmax ([10]; bone marrow, DEX (+)): 15.82 µg/mL
- Vss ([10]; bone marrow, DEX (+)): 10.12 mL/g
- AUC ([10]; bone marrow, DEX (−)): 18.35 µg·h/mL
- CL ([10]; bone marrow, DEX (−)): 8.72 mL/g/h
- Cmax ([10]; bone marrow, DEX (−)): 16.12 µg/mL
- Vss ([10]; bone marrow, DEX (−)): 9.93 mL/g
- AUC ([10]; liver, DEX (+)): 124.80 µg·h/mL
- CL ([10]; liver, DEX (+)): 1.28 mL/g/h
- Cmax ([10]; liver, DEX (+)): 166.94 µg/mL
- Vss ([10]; liver, DEX (+)): 0.96 mL/g
- AUC ([10]; liver, DEX (−)): 123.68 µg·h/mL
- CL ([10]; liver, DEX (−)): 1.29 mL/g/h
- Cmax ([10]; liver, DEX (−)): 158.43 µg/mL
- Vss ([10]; liver, DEX (−)): 1.01 mL/g
- AUC ([10]; plasma, DEX (+)): 319.96 µg·h/mL
- CL ([10]; plasma, DEX (+)): 0.50 mL/g/h
- Cmax ([10]; plasma, DEX (+)): 253.68 µg/mL
- Vss ([10]; plasma, DEX (+)): 10.81 mL/g
- AUC ([10]; plasma, DEX (−)): 552.32 µg·h/mL
- CL ([10]; plasma, DEX (−)): 0.29 mL/g/h
- Cmax ([10]; plasma, DEX (−)): 264.13 µg/mL
- Vss ([10]; plasma, DEX (−)): 16.64 mL/g
- AUC ([10]; spleen, DEX (+)): 135.50 µg·h/mL
- CL ([10]; spleen, DEX (+)): 1.18 mL/g/h
- Cmax ([10]; spleen, DEX (+)): 193.29 µg/mL
- Vss ([10]; spleen, DEX (+)): 0.83 mL/g
- AUC ([10]; spleen, DEX (−)): 375.21 µg·h/mL
- CL ([10]; spleen, DEX (−)): 0.43 mL/g/h
- Cmax ([10]; spleen, DEX (−)): 196.84 µg/mL
- Vss ([10]; spleen, DEX (−)): 0.81 mL/g
- increase in tumor AUC by DEX pretreatment ([11]; H1299 nude mice): 60%
- AUC ([11]; bone marrow, DEX (+)): 16.41 µg·h/mL
- CL ([11]; bone marrow, DEX (+)): 9.75 mL/g/h
- Cmax ([11]; bone marrow, DEX (+)): 14.36 µg/mL
- Vss ([11]; bone marrow, DEX (+)): 11.14 mL/g
- AUC ([11]; bone marrow, DEX (−)): 21.10 µg·h/mL
- CL ([11]; bone marrow, DEX (−)): 7.58 mL/g/h
- Cmax ([11]; bone marrow, DEX (−)): 18.53 µg/mL
- Vss ([11]; bone marrow, DEX (−)): 8.64 mL/g
- AUC ([11]; liver, DEX (+)): 107.85 µg·h/mL
- CL ([11]; liver, DEX (+)): 1.48 mL/g/h
- Cmax ([11]; liver, DEX (+)): 157.46 µg/mL
- Vss ([11]; liver, DEX (+)): 1.02 mL/g
- AUC ([11]; liver, DEX (−)): 123.27 µg·h/mL
- CL ([11]; liver, DEX (−)): 1.30 mL/g/h
- Cmax ([11]; liver, DEX (−)): 171.80 µg/mL
- Vss ([11]; liver, DEX (−)): 0.93 mL/g
- AUC ([11]; plasma, DEX (+)): 322.43 µg·h/mL
- CL ([11]; plasma, DEX (+)): 0.50 mL/g/h
- Cmax ([11]; plasma, DEX (+)): 237.16 µg/mL
- Vss ([11]; plasma, DEX (+)): 9.90 mL/g
- AUC ([11]; plasma, DEX (−)): 277.38 µg·h/mL
- CL ([11]; plasma, DEX (−)): 0.58 mL/g/h
- Cmax ([11]; plasma, DEX (−)): 286.72 µg/mL
- Vss ([11]; plasma, DEX (−)): 5.96 mL/g
- AUC ([11]; spleen, DEX (+)): 505.40 µg·h/mL
- CL ([11]; spleen, DEX (+)): 0.32 mL/g/h
- Cmax ([11]; spleen, DEX (+)): 179.42 µg/mL
- Vss ([11]; spleen, DEX (+)): 0.89 mL/g
- AUC ([11]; spleen, DEX (−)): 909.92 µg·h/mL
- CL ([11]; spleen, DEX (−)): 0.18 mL/g/h
- Cmax ([11]; spleen, DEX (−)): 221.99 µg/mL
- Vss ([11]; spleen, DEX (−)): 0.72 mL/g
- AUC ([11]; tumor, DEX (+)): 674.44 µg·h/mL
- CL ([11]; tumor, DEX (+)): 0.23 mL/g/h
- Cmax ([11]; tumor, DEX (+)): 46.66 µg/mL
- Vss ([11]; tumor, DEX (+)): 12.72 mL/g
- AUC ([11]; tumor, DEX (−)): 434.55 µg·h/mL
- CL ([11]; tumor, DEX (−)): 0.37 mL/g/h
- Cmax ([11]; tumor, DEX (−)): 49.15 µg/mL
- Vss ([11]; tumor, DEX (−)): 9.01 mL/g
